Source: paper PMC11699688, “Unravelling the outcome of L-glutaminase produced by Streptomyces sp. strain 5 M as an anti-neoplasm activity” (Microbial Cell Factories, 2025)

System: T1, L-glutaminase
T1 construct: native extracellular enzyme purified from culture (ammonium sulfate, DEAE-cellulose, Sephacryl S-300); 52 kDa by SDS-PAGE (54 kDa in discussion); monomer
Experiment: steady-state kinetics, ammonia release by Nesslerization
Format: biochemical, Streptomyces sp. 5 M
Conditions: substrate 2-5 mM; pH and temperature of the kinetic run not printed (optimum pH 7.5, 40 °C)
Source text: steady-state kinetics, ammonia release by Nesslerization on L-glutaminase | the purified L-glutaminase from Streptomyces sp.

NC(=O)CC[C@H](N)C(=O)O [L-glutamine]
Km: 2620 µM
